# Experimental data taken from patent publication US12616712B2 (LONZA SALES AG, priority 2019, dated 2026).
# Tested on: GL261-Luc glioblastoma multiforme
# Assay: syngeneic GL261-Luc glioblastoma multiforme model
# Format: in vivo
# Details: mice, control groups, FIG. 7A
# Procedure: The efficacy of exoSTING treatment in a syngeneic GL261-Luc glioblastoma multiforme model was assessed. Briefly, 5×10^5 GL261-LUC cells were administered via a 10 μl intra-striatal stereotactic injection to the mice. Tumor presence was confirmed by T1-weighted (T1W) MRI scan 15 days later. Four days after the MRI scan, when tumors were approximately 80-100 mm^3, stereotactic coordinates were used to administer 5 μl (˜120 ng) ExoSTING every 72 hours for 3 total injections to some of the animals. […] Anti-PDL-1 mAb was dosed twice weekly for 2 weeks (IOmpk IV). Phosphate buffered saline (PBS) alone and Temozolomide (TMZ) alone were dosed twice weekly for 2 weeks (30mpk IP). Mice were then followed for survival end-point.
compound,measurement,value
Cn1nnc2c(C(N)=O)ncn2c1=O [Temozolamide],survival: all animals succumbed to the tumor by day post tumor induction,~40 days
